Patent US20070037887A1, “Blockade of mtor to prevent a hormonal adaptive response” (University of Virginia Patent Foundation, priority 2003, published 2007)

Assays:
LTED cells [1] = test: Estradiol dose response of growth (hypersensitivity), LTED cells; assay type: cell-based, human; conditions: PD 98059 alone
Excerpt: During the phase when tamoxifen first begins to stimulate tumor growth, removal of tamoxifen and administration of very low doses of estradiol stimulates tumor growth. In marked contrast, wild type tumors not exposed to tamoxifen long term are not stimulated by such low doses of estradiol. Taken together, these experiments indicate that either estradiol deprivation or blockade of estrogen action with antiestrogens enhances the level of sensitivity to estrogens or to the estrogenic properties of tamoxifen. This phenomenon of adaptive hypersensitivity is believed to be responsible for the superiority of aromatase inhibitors over tamoxifen in a variety of clinical settings.
(§1) As further evidence of the role of MAP kinase, PD 98059 was administered to LTED cells and its effect on level of sensitivity to estradiol was examined.
To investigate whether the MAP and P13 kinase pathways have a role in estradiol induced cell proliferation, the following experiments were conducted. […] Blockade of this effect was obtained with the MAPK inhibitor PD98059. Administration of TGF at a dose of 10 ng/ml caused a 2-log shift to the left in the ability of estradiol to stimulate the growth of wild-type MCF-7 cells. […] Dual inhibition of PI3K with LY40029 and MAPK with U0126 shifted the level of sensitivity to estradiol more dramatically, by more than 2 logs to the right. […]

MCF-7 cells = test: Estradiol dose response of growth, wild type MCF-7 cells; assay type: cell-based, human; conditions: PD 98059 co-administered with TGF alpha
Procedure: as §1
To investigate whether the MAP and P13 kinase pathways have a role in estradiol induced cell proliferation, the following experiments were conducted. […] Blockade of this effect was obtained with the MAPK inhibitor PD98059. Administration of TGF at a dose of 10 ng/ml caused a 2-log shift to the left in the ability of estradiol to stimulate the growth of wild-type MCF-7 cells. […] Dual inhibition of PI3K with LY40029 and MAPK with U0126 shifted the level of sensitivity to estradiol more dramatically, by more than 2 logs to the right. On the basis of these observations, it is believed that adaptive hypersensitivity involves the joint activation of the PI3K and MAPK pathways.

Shc [2] = test: E2-induced Shc phosphorylation in MCF-7 cells; assay type: cell-based, human; conditions: 10^−10 M E2 for 3 minutes
Procedure: Because ERα, Shc and MAP kinase are all involved in E2 action in MCF-7 cells, upstream components responsible for Shc phosphorylation were determined by measuring the effects of PP2, ICI and PD98059 on E2-induced phosphorylation of Shc. In the presence of the inhibitors, MCF-7 cells were stimulated with vehicle or 10^−10 M E2 for 3 minutes and the status of Shc phosphorylation was examined. […] No effects of these inhibitors were apparent in the absence of E2 stimulation. […] Each of these inhibitors was capable of reducing the rate of cell proliferation in LTED cells.

LTED cells [3] = test: [3H] thymidine incorporation into DNA, LTED cells; assay type: cell-based, human; conditions: inhibitors of the MAP kinase pathway
Procedure: FIGS. 5A & 5B represent the effect of FTS on DNA synthesis in MCF-7 (FIG. 5A) and LTED (FIG. 5B) cells. One hundred thousand cells were plated into each well of 24-well plates. Two days later, the cells were re-fed with IMEM containing 5% DCC-FBS. After another two days, cells were treated in quadruplicate with the compounds indicated for 18 hours. [^3H] thymidine (1 μCi/well) was added during the last 2 h of incubation. [^3H] thymidine incorporated into DNA was normalized by protein content.
The inhibitory effect of FTS on cell growth may be the result of inhibition of cellular proliferation, induction of apoptosis, or both. To determine the mechanism by which FTS inhibits cell growth, FTS's effect on DNA synthesis and apoptosis was investigated. […] Estradiol (10^−10 M) increased [^3H] thymidine incorporation by 2.6 fold compared to the control level in MCF-7 cells.

[4] = test system: hormone dependent breast cancer; conditions: women responding initially to tamoxifen then relapsing, crossed over; cited from earlier work
MAP kinase = MAP kinase activation in LTED cells; assay type: cell-based, human
Procedure: Upregulation of MAP kinase and PI-3-kinase could reflect either a constitutive activation of growth factor receptors, an increase in the endogenous secretion of growth factors, or other mechanisms. Inhibition of MAP kinase with a pure antiestrogen would rule out the possibility of constitutive activation of growth factor receptors or growth factor secretion. Accordingly, the pure anti-estrogen, faslodex (fulvestrant) was administered and the level of activation of MAP kinase in LTED cells was examined.
Estrogen deprivation might trigger activation of a non-genomic, estrogen regulated, MAP kinase pathway which utilizes Shc. […] The addition of E2 stimulated MAP kinase phosphorylation in LTED cells within minutes. The increased MAP kinase phosphorylation by E2 was time and dose-dependent being greatly stimulated at 15 min and remaining elevated for at least 30 min. Maximal stimulation of MAP kinase phosphorylation was at 10^−10 M of E2.

Shc [5] = test: Shc tyrosine phosphorylation in LTED cells; assay type: cell-based, human; conditions: at 3 min and 15 min respectively
Procedure: Shc proteins are known to couple tyrosine kinase receptors to the MAPK pathway and activation of Shc involves the phosphorylation of SHC itself. To investigate if the Shc pathway was involved in the rapid action of estradiol in LTED cells, tyrosine phosphorylated proteins were immuno-precipitated and tested for the presence of Shc under E2 treatment. E2 rapidly stimulated Shc tyrosine phosphorylation in a dose and time dependent fashion with a peak at 3 minutes. The pure estrogen receptor antagonist, fulvestrant, blocked E2-induced Shc and MAPK phosphorylation at 3 min and 15 min respectively.

LTED cells [6] = test: Actin cytoskeleton (phalloidin staining) and ERα localization in LTED cells; assay type: cell-based, human; conditions: 10^−9 M
Excerpt: It has been reported that cell mobility is controlled by a network of membrane initiated signals, such as activation of the Shc-Ras-MAPK pathway. Recently, it was reported that cell focal adhesions are highly dynamic structures. Cells can rapidly respond to the stimulation by growth factors and show reorganization of their cytoskeleton and cell shape. To examine E2 effects on reorganization of the actin cytoskeleton, the distribution of F-actin and also redistribution of the ERα localization in LTED and MCF-7 cells was determined by phalloidin staining. Untreated LTED cells expressed low actin polymerization and a few focal adhesion points. After E2 stimulation in contrast, the cytoskeleton underwent remodeling associated with formation of cellular ruffles, lamellipodias and leading edges, alterations of cell shape and loss of mature focal adhesion points. A subcellular redistribution of ERα to these dynamic membranes upon E2 stimulation represented another important feature of LTED cells. The ER antagonist ICI 182 780 at 10^−9 M blocked E2-induced ruffle formation as well as redistribution of ERα to the membrane with little effect by itself.

mTOR-raptor complex = test: Coimmunoprecipitation of raptor with mTOR, compound added to cell extracts or immune complexes; assay type: binding; conditions: caffeine 1 mM, LY294002 10 μM, rapamycin 1 μM plus FKBP12 10 μM, wortmannin 1 μM
Procedure: 293T cells were transfected with pcDNA3 alone (Vec.) or with a combination of pcDNA3AU1-mTOR, pcDNA33HA-Raptor, and pcDNA33HA-mLST8. Extracts of the cells were incubated with increasing concentrations of FTS before AU1-mTOR was immunoprecipated. Samples of the immune complexes were incubated with [γ-^32P]ATP and recombinant [His^6]PHAS-I, then subjected to SDS-PAGE and transferred to an immobilon membrane. After obtaining a phosphorimage of the membrane to detect ^32P-PHAS-I, the membrane was immunoblotted with PThr^36/45 antibodies. Other samples of the immune complexes were subjected to SDS-PAGE and immunoblots were prepared with antibodies to the HA epitope or to mTOR (see FIG. 13A). Extracts of nontransfected 293T cells were incubated with increasing concentrations of FTS before mTOR was immunoprecipated with mTAb1. A control immunoprecipitation was conducted using nonimmune IgG (NI). Immune complexes were subjected to SDS-PAGE and immunoblots were prepared with antibodies to mLST8, mTOR, and raptor.
Samples of extracts from 293T cells overexpressing AU1-mTOR, HA-raptor, and HA-mLST8 were incubated for 1 h with increasing concentrations of FTS (●, ▴, ▪) or GTS (∘, Δ, □) before immunoprecipitations were conducted with anti-AU1 antibodies. mTOR kinase activity (●, ∘) was determined by measuring ^32P incorporation into [His^6]PHAS-I in immune complex kinases assays performed with [γ-^32P]ATP (see FIG. 14A). The relative amounts of HA-raptor (▴, Δ) and HA-mLST8 (▪, □) that coimmunoprecipitated with AU1-mTOR were determined after immunoblotting with anti-HA antibodies (see FIG. 14B). The results (mean values+S.E. from 5 experiments) are expressed as percentages of the mTOR activity (FIG. 14A) or coimmunoprecipitating proteins (FIG. 14B) from samples incubated without FTS or GTS, and have been corrected for the amounts of AU1-mTOR immunoprecipitated.
293T cells were transfected with pcDNA3 alone (Vec.) or with a combination of pcDNA3AU1-mTOR, pcDNA33HARaptor, and pcDNA33HA-mLST8. AU1-mTOR was immunoprecipitated and samples of the washed immune complexes were at incubated […] for 30 min with no inhibitors or with the following: caffeine (1 mM), FTS (50 μM), LY294002 (10 μM), rapamycin (1 μM) plus FKBP12 (10 μM), and 1 μM wortmannin. To prevent destruction of wortmannin, incubations were conducted in the absence of thiol reducing agents. Samples of the immune complexes were incubated for 10 min with 10 mM MnCl2, 1 mM [γ-^32P]ATP, and 50 μg/ml [His^6]PHAS-I to assess mTOR activity. Other samples were rinsed twice, subjected to SDS-PAGE, and immunoblotted with anti-HA and anti-AU1 antibodies to determine the amounts of HA-raptor and HA-mLST8 associated with AU1-mTOR. The relative amounts of ^32P incorporated into PHAS-I were determined by phosphorimaging (see FIG. 15B).

mTOR signaling = conditions: in cells; cited from earlier work

Structure (SMILES): COc1cccc(-c2cc(=O)c3ccccc3o2)c1N [PD98059]
- shift to the right of estradiol dose response curves (LTED cells [1]): approximately one-half log
- TGF alpha induced left shift in estradiol dose response (MCF-7 cells): returned to baseline
- TGF alpha induced left shift in estradiol dose response (MCF-7 cells; listed as PD 98059): returned back to baseline
- E2-induced Shc phosphorylation (Shc [2]): did not influence
- incorporation of tritiated thymidine into DNA (LTED cells [3]): block the incorporation

Structure (SMILES): CCC1(c2ccc(N)cc2)CCC(=O)NC1=O (stereo not drawn) [aminoglutethimide]
- women with secondary clinical benefit [4]: 50%

Structure (SMILES): C[C@]12CC[C@@H]3c4ccc(O)cc4C[C@@H](CCCCCCCCC[S+]([O-])CCCC(F)(F)C(F)(F)F)[C@H]3[C@@H]1CC[C@@H]2O (stereo partly drawn) [fulvestrant]
- level of activated MAP kinase (MAP kinase): returned the level of activated MAP kinase back to the level seen in wild type MCF-7 cells
- E2-induced Shc and MAPK phosphorylation (Shc [5]): blocked

Structure (SMILES): C[C@]12CC[C@@H]3c4ccc(O)cc4C[C@@H](CCCCCCCCC[S+]([O-])CCCC(F)(F)C(F)(F)F)[C@H]3[C@@H]1CC[C@@H]2O (stereo partly drawn) [ICI 182 780]
- E2-induced ruffle formation and redistribution of ERα to the membrane (LTED cells [6]): blocked
- E2-induced Shc phosphorylation (Shc [2]): effectively inhibited

Structure (SMILES): Cn1c(=O)c2c(ncn2C)n(C)c1=O [caffeine, reference compound]
- decrease of the association of AU1-mTOR and HA-raptor (mTOR-raptor complex): little, if any, effect

Structure (SMILES): CC[C@H](C)[C@@H](CO[C@@H](Cc1ccccc1)C(=O)N[C@@H](CCS(C)(=O)=O)C(=O)OC(C)C)NC[C@@H](N)CS [L-744,832]
- time in which inhibition of mTOR signaling occurs (mTOR signaling): ≤ 1.5 h
